Measured values reported in PMC9147192, “Small Molecule Arranged Thermal Proximity Coaggregation (smarTPCA)—A Novel Approach to Characterize Protein–Protein Interactions in Living Cells by Similar Isothermal Dose–Responses” (International Journal of Molecular Sciences, 2022).

Biological target: T1, POR (Homo sapiens, UniProt P16435)
T1 construct: endogenous in cells; host or cells: HL-60 (ATCC CCL-240)
T1 sequence (P16435 1-677): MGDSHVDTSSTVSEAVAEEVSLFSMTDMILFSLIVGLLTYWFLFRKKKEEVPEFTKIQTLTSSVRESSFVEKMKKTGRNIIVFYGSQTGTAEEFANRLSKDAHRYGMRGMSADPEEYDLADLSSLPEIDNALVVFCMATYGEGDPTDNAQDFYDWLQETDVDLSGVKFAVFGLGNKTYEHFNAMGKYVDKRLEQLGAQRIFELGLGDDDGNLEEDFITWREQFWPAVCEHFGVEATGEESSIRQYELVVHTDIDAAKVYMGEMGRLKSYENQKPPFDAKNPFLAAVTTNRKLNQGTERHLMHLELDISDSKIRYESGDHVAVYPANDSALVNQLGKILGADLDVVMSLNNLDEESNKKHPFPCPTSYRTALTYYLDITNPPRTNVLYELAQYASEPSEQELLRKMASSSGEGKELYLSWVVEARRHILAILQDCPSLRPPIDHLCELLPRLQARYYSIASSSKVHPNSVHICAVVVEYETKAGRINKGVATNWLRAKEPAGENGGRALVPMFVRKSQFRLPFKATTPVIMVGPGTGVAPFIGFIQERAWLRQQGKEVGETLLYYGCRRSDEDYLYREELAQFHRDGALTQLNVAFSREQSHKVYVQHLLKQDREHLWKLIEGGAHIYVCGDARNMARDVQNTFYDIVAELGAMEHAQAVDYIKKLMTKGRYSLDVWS
Experiment: TPP-CCR in living HL-60 cells
Type: cell-based
Text: Therefore, we performed TPP with compound concentration range (TPP-CCR) experiments according to published procedures. In brief, after preparing tryptic peptides from the non-denatured protein fractions (used for immunoblotting in the previous sections) applying the SP3 method, the peptides were labeled using TMT10plex, coding for inhibitor concentration, and the samples belonging to a TMT set were combined, offline high-pH fractionated, and analyzed by MS.
HL-60 cells were expanded as described above for CETSA and TPP-TR to 1.25 million cells per milliliter. […] A number of 2.5 million cells in 2 mL of medium were added to each tube and incubated (1 h, 37 °C). After centrifugation (300 rcf, 3 min, r.t.) and removing all of the supernating culture medium, the cells were washed once with 2 mL and once with 0.5 mL PBS (r.t.) by gently resuspending the cells, followed by centrifugation (300 rcf, 3 min, r.t.) and the complete removal of the supernatants.
After transferring the cells from the 2 mL Eppendorf tubes into correspondingly labeled PCR tubes (tube strips) using 100 µL of ice-cold PBS supplemented with protease inhibitors for resuspending the cells, the samples were further processed as described above for CETSA and TPP-TR, however, by applying a single treatment temperature of 51 °C.
For each sample set comprising ten compound concentration range samples, a same volume of the cell extracts containing the fraction of soluble, non-denatured proteins, corresponding to an average of 5 µg total protein, was used for further analysis. The calculated volume was respectively transferred into PCR tubes of a tube strip and supplemented with SDS sample buffer without DTT and bromophenol blue (final concentrations: 7.5% glycerol, 3% SDS, 37.5 mM Tris/HCl pH 7.0) and ddH2O to a final volume of 10 µL, respectively. Reduction and alkylation were performed by addition of 2.5 µL 100 mM dithiothreitol (DTT; incubation: 20 min, 56 °C, 1000 rpm in an Eppendorf ThermoMixer C, covering the tubes with aluminum foil to minimize condensation in the lids) and 3.33 µL 300 mM iodoacetamide (IAA; incubation: 15 min, r.t., in the dark without shaking), as well as 2.5 µL 100 mM DTT (incubation: 15 min, r.t., without shaking; quenching of excess of IAA). […] The beads were collected and washed (3× 200 µL 80% ethanol p.a. in HPLC-MS grade water, 1 × 200 µL acetonitrile (ACN; HPLC gradient grade)) using a device for handling of magnetic particles [patent US20100200405A1]. The ACN of the last washing step was completely removed by aspiration without letting the beads dry out.
Tryptic digest was performed on-bead by resuspending (use of an ultrasound bath may be required) the beads in 20 µL 50 mM TEAB in HPLC-MS grade water containing 0.1 µg Trypsin/Lys-C mix and 16.5 h incubation at 37 °C and 1000 rpm (Eppendorf ThermoMixer C, covering the tubes with aluminum foil to minimize condensation in the lids). Tryptic fragmentation of proteins was optimized by addition of another 0.1 µg of Trypsin/Lys-C mix in 2 µL 50 mM TEAB and 4 h incubation at 37 °C and 1000 rpm. After centrifugation for about 1 min in a table top centrifuge and magnetic concentration and retention of the beads at the inner tube wall, the supernatants containing the peptides were transferred into new PCR tubes (of tube strips) and were stored at −80 °C. The beads were discarded.
Half of the peptide samples (11 µL containing about 2.5 µg peptides) were transferred into new PCR tubes (of tube strips) and allowed to equilibrate to r.t. TMT labeling reagents were reconstituted as described for the TPP-TR samples, and 1 µL each was added to the reconstituted peptides according to the following scheme and homogenized immediately by aspiration and dispensing:
Peptide separation was performed as described above for the analysis of TPP-TR samples. […]

[1] = living HL-60 cells, […] °C, TMT-MS

## Cc1cnc(Nc2ccc(F)cc2Cl)nc1-c1c[nH]c(C(=O)N[C@H](CO)c2cccc(Cl)c2)c1 [ERK 11e]
TPP-CCR, living cells, POR
  Hill slope: 0.73
[1]
  EC50: 1290 nM
  Hill slope (POR): 0.73
